These results are taken from patent US20050142531A1, “Peptidically buffered formulations for electrotransport applications and methods of making” (priority 2003, published 2005).

The nature of this series: pKa, pI and % salt of peptidic buffers. The class given is physicochemical. Conditions: for pI: Table 2; for % salt: fraction ionized with net charge in aqueous solution at pH equal to the pI.

Square brackets hold non-standard residues; d marks the D form. Peptide text beside a SMILES is read from it. Cit = NC(=O)NCCC[C@H](N)C(=O)O; Orn = NCCC[C@H](N)C(=O)O

As to `C[C@H](N)C(=O)N[C@@H](Cc1c[nH]cn1)C(=O)O` [Ala-His] (H-Ala-His-OH; N-terminus and C-terminus assumed), the “pka A (acidic pKa)” value (Table 2, first acidic pKa) came to 2.42. For the same molecule, the “pka B (basic pKa)” value (Table 2, first basic pKa) was 6.71 and the “pka B (basic pKa)” value (Table 2, second basic pKa) stood at 8.37.
Taken in the same sequence, the figures for `Cn1cncc1C[C@H](NC(=O)CCN)C(=O)O` [Anserine] were 2.64, 7.04 and 9.49.
In the case of `N=C(N)NCCC[C@H](N)C(=O)N[C@@H](CC(=O)O)C(=O)O` [Arg-Asp] (H-Arg-Asp-OH; N-terminus and C-terminus assumed), the “pka A (acidic pKa)” value reads like this: (Table 2, first acidic pKa) 2.64; (Table 2, second acidic pKa) 4.10. Further, the “pka B (basic pKa)” value was 8.05 (Table 2, first basic pKa) and 12.50 (Table 2, second basic pKa).
As for `N=C(N)NCCC[C@H](N)C(=O)N[C@@H](CCC(=O)O)C(=O)O` [Arg-Glu] (H-Arg-Glu-OH; N-terminus and C-terminus assumed), the “pka A (acidic pKa)” value was 2.74 (Table 2, first acidic pKa) and 4.18 (Table 2, second acidic pKa). The “pka B (basic pKa)” value came to 7.92 (Table 2, first basic pKa) and 12.50 (Table 2, second basic pKa).
Take `NC(=O)C[C@H](N)C(=O)N[C@@H](Cc1c[nH]cn1)C(=O)O` [Asn-His] (H-Asn-His-OH; N-terminus and C-terminus assumed): for the setting “Table 2, first acidic pKa”, the “pka A (acidic pKa)” value came out at 2.42. Moreover, the “pka B (basic pKa)” value was found to be 6.71 (Table 2, first basic pKa) and 7.30 (Table 2, second basic pKa).
On to `N[C@@H](CC(=O)O)C(=O)N[C@@H](CC(=O)O)C(=O)O` [Asp-Asp] (H-Asp-Asp-OH; N-terminus and C-terminus assumed), for which the “pka A (acidic pKa)” value (Table 2, first acidic pKa) was determined as 2.70; the “pka A (acidic pKa)” value (Table 2, second acidic pKa) is on record as 3.40; the “pka A (acidic pKa)” value (Table 2, third acidic pKa) stood at 4.70. Also, where the note is “Table 2, first basic pKa”, the “pka B (basic pKa)” value worked out at 8.26.
Regarding `N[C@@H](CC(=O)O)C(=O)N[C@@H](Cc1c[nH]cn1)C(=O)O` [Asp-His] (H-Asp-His-OH; N-terminus and C-terminus assumed), the “pka A (acidic pKa)” value (Table 2, first acidic pKa) was found to be 2.45 and the “pka A (acidic pKa)” value (Table 2, second acidic pKa) came to 3.02. Further, the “pka B (basic pKa)” value reads like this: (Table 2, first basic pKa) 6.81; (Table 2, second basic pKa) 7.98.
Take `NCCC(=O)N[C@@H](Cc1cnc[nH]1)C(=O)O` [Beta-Alanylhistidine]: the pI turned out to be 7.70 and the “% salt” value stood at 16%. The “pka A (acidic pKa)” value (Table 2, first acidic pKa) was determined as 2.60. In addition, the “pka B (basic pKa)” value (Table 2, first basic pKa) worked out at 6.70. Also, the “pka B (basic pKa)” value (Table 2, second basic pKa) was determined as 8.70.
Taken in the same sequence, the figures for `NCCC(=O)N[C@@H](Cc1cnc[nH]1)C(=O)O` [Carnosine] were 8.17, 8%, 2.64, 6.83 and 9.51.
In the case of `NC(=O)NCCC[C@H](N)C(=O)N[C@@H](Cc1c[nH]cn1)C(=O)O` [Citrulline-His] (H-[Cit]-His-OH; N-terminus and C-terminus assumed), the “pka A (acidic pKa)” value (Table 2, first acidic pKa) amounted to 2.42. Besides, the “pka B (basic pKa)” value reads like this: (Table 2, first basic pKa) 6.71; (Table 2, second basic pKa) 7.90.
The like results for `NC(=O)CC[C@H](N)C(=O)N[C@@H](Cc1c[nH]cn1)C(=O)O` [GIn-His] (H-Gln-His-OH; N-terminus and C-terminus assumed) were, in that order, 2.42, 6.71 and 7.70.
Turning to `N=C(N)NCCC[C@H](NC(=O)[C@@H](N)CCC(=O)O)C(=O)O` [Glu-Arg] (H-Glu-Arg-OH; N-terminus and C-terminus assumed), the “pka A (acidic pKa)” value (Table 2, first acidic pKa) was found to be 2.66 and the “pka A (acidic pKa)” value (Table 2, second acidic pKa) is 4.01. The “pka B (basic pKa)” value is 7.94 (Table 2, first basic pKa) and 12.50 (Table 2, second basic pKa).
Taken in the same sequence, the figures for `N[C@@H](CCC(=O)O)C(=O)N[C@@H](Cc1c[nH]cn1)C(=O)O` [Glu-His] (H-Glu-His-OH; N-terminus and C-terminus assumed) were 2.45, 3.45, 6.81 and 8.20.
With `NCC(=O)N[C@@H](CC(=O)O)C(=O)O` [Gly-Asp] (H-Gly-Asp-OH; N-terminus and C-terminus assumed), the “pka A (acidic pKa)” value runs as follows: (Table 2, first acidic pKa) 2.81; (Table 2, second acidic pKa) 4.45. Also, for the setting “Table 2, first basic pKa”, the “pka B (basic pKa)” value is given as 8.60.
Consider `NC(=O)C[C@H](NC(=O)[C@@H](N)Cc1c[nH]cn1)C(=O)O` [His-Asn] (H-His-Asn-OH; N-terminus and C-terminus assumed), for which the “pka A (acidic pKa)” value (Table 2, first acidic pKa) was determined as 2.62. Further, the “pka B (basic pKa)” value is given as 6.10 (Table 2, first basic pKa) and 7.80 (Table 2, second basic pKa).
Turning to `NC(=O)NCCC[C@H](NC(=O)[C@@H](N)Cc1c[nH]cn1)C(=O)O` [His-Citrulline] (H-His-[Cit]-OH; N-terminus and C-terminus assumed), the “pka A (acidic pKa)” value (Table 2, first acidic pKa) turned out to be 3.05. The “pka B (basic pKa)” value came out at 6.10 (Table 2, first basic pKa) and 7.80 (Table 2, second basic pKa).
Taken in the same sequence, the figures for `NC(=O)CC[C@H](NC(=O)[C@@H](N)Cc1c[nH]cn1)C(=O)O` [His-Gln] (H-His-Gln-OH; N-terminus and C-terminus assumed) were 2.93, 6.10 and 7.80.
Consider `N[C@@H](Cc1c[nH]cn1)C(=O)N[C@@H](Cc1c[nH]cn1)C(=O)O` [His-His], for which the “pka A (acidic pKa)” value (Table 2, first acidic pKa) is recorded as 2.25. Also, the “pka B (basic pKa)” value reads like this: (Table 2, first basic pKa) 5.40; (Table 2, second basic pKa) 6.80; (Table 2, third basic pKa) 7.95.
The like results for `NCC(O)CC[C@H](NC(=O)[C@@H](N)Cc1c[nH]cn1)C(=O)O` (stereo partly shown) [His-Hydroxylysine] were, in that order, 3.05, 6.10, 7.80 and 9.70.
With `N[C@@H](Cc1c[nH]cn1)C(=O)N1CC(O)C[C@H]1C(=O)O` (stereo partly shown) [His-Hydroxyproline], the “pka A (acidic pKa)” value (Table 2, first acidic pKa) turned out to be 2.42. Also, the “pka B (basic pKa)” value is reported as 6.10 (Table 2, first basic pKa) and 7.80 (Table 2, second basic pKa).
Taken in the same sequence, the figures for `CC[C@H](C)[C@H](NC(=O)[C@@H](N)Cc1c[nH]cn1)C(=O)O` [His-Isoleucine] (H-His-Ile-OH; N-terminus and C-terminus assumed) were 3.13, 6.10 and 7.80.
The like results for `CC(C)C[C@H](NC(=O)[C@@H](N)Cc1c[nH]cn1)C(=O)O` [His-Leu] (H-His-Leu-OH; N-terminus and C-terminus assumed) were, in that order, 3.10, 6.10 and 7.80.
For `NCCCC[C@H](NC(=O)[C@@H](N)Cc1c[nH]cn1)C(=O)O` [His-Lys] (H-His-Lys-OH; N-terminus and C-terminus assumed), the “pka A (acidic pKa)” value (Table 2, first acidic pKa) was determined as 3.05. The “pka B (basic pKa)” value by setting is: (Table 2, first basic pKa) 6.10; (Table 2, second basic pKa) 7.80; (Table 2, third basic pKa) 11.00.
With `CSCC[C@H](NC(=O)[C@@H](N)Cc1c[nH]cn1)C(=O)O` [His-Met] (H-His-Met-OH; N-terminus and C-terminus assumed), the “pka A (acidic pKa)” value (Table 2, first acidic pKa) turned out to be 2.89. Besides, the “pka B (basic pKa)” value runs as follows: (Table 2, first basic pKa) 6.10; (Table 2, second basic pKa) 7.80.
In the case of `NCCC[C@H](NC(=O)[C@@H](N)Cc1c[nH]cn1)C(=O)O` [His-Ornithine] (H-His-[Orn]-OH; N-terminus and C-terminus assumed), the “pka A (acidic pKa)” value (Table 2, first acidic pKa) stood at 2.82. Moreover, the “pka B (basic pKa)” value was 6.10 (Table 2, first basic pKa); 7.80 (Table 2, second basic pKa); 11.00 (Table 2, third basic pKa).
With `N[C@@H](Cc1c[nH]cn1)C(=O)N[C@@H](Cc1ccccc1)C(=O)O` [His-Phe] (H-His-Phe-OH; N-terminus and C-terminus assumed), the “pka A (acidic pKa)” value (Table 2, first acidic pKa) amounted to 2.88. In addition, the “pka B (basic pKa)” value runs as follows: (Table 2, first basic pKa) 6.10; (Table 2, second basic pKa) 7.80.
The like results for `N[C@@H](Cc1c[nH]cn1)C(=O)N1CCC[C@H]1C(=O)O` [His-Pro] were, in that order, 2.62, 6.10 and 7.80.
The like results for `N[C@@H](Cc1c[nH]cn1)C(=O)N[C@@H](CO)C(=O)O` [His-Ser] (H-His-Ser-OH; N-terminus and C-terminus assumed) were, in that order, 2.65, 6.10 and 7.80.
The like results for `C[C@@H](O)[C@H](NC(=O)[C@@H](N)Cc1c[nH]cn1)C(=O)O` [His-Thr] (H-His-Thr-OH; N-terminus and C-terminus assumed) were, in that order, 2.98, 6.10 and 7.80.
As to `N[C@@H](Cc1c[nH]cn1)C(=O)N[C@@H](Cc1c[nH]c2ccccc12)C(=O)O` [His-Trp], under “Table 2, first acidic pKa”, the “pka A (acidic pKa)” value is 3.07. For the same molecule, the “pka B (basic pKa)” value was found to be 6.10 (Table 2, first basic pKa) and 7.80 (Table 2, second basic pKa).
For the molecule `N[C@@H](Cc1c[nH]cn1)C(=O)N[C@@H](Cc1ccc(O)cc1)C(=O)O` [His-Tyr] (H-His-Tyr-OH; N-terminus and C-terminus assumed), the “pka A (acidic pKa)” value (Table 2, first acidic pKa) is given as 2.13 and the “pka A (acidic pKa)” value (Table 2, second acidic pKa) is reported as 9.97. Also, the “pka B (basic pKa)” value (Table 2, first basic pKa) amounted to 6.10 and the “pka B (basic pKa)” value (Table 2, second basic pKa) worked out at 7.80.
Turning to `CC(C)[C@H](NC(=O)[C@@H](N)Cc1c[nH]cn1)C(=O)O` [His-Val] (H-His-Val-OH; N-terminus and C-terminus assumed), the “pka A (acidic pKa)” value (Table 2, first acidic pKa) is 3.18. Also, the “pka B (basic pKa)” value amounted to 6.10 (Table 2, first basic pKa) and 7.80 (Table 2, second basic pKa).
As for `NCC(O)CC[C@H](N)C(=O)N[C@@H](Cc1c[nH]cn1)C(=O)O` (stereo partly shown) [Hydroxylysine-His], under “Table 2, first acidic pKa”, the “pka A (acidic pKa)” value is given as 2.42. Further, the “pka B (basic pKa)” value by setting is: (Table 2, first basic pKa) 6.71; (Table 2, second basic pKa) 7.40; (Table 2, third basic pKa) 9.70.
